Test results published in patent US7498337B2, “Acid secretion inhibitor” (Takeda Pharmaceutical Company Limited, priority 2005, dated 2009).

Columns and labels:
[1] = molecular target: T1, H+,K+-ATPase (gastric mucous membrane microsomal fraction) (Sus scrofa, UniProt P19156); assay: Proton potassium-adenosine triphosphatase (H+,K+-ATPase) inhibitory activity test; format: biochemical; details: swine gastric microsomal fraction, pH 6.5, 37° C., 30 min preincubation
T1 construct: The obtained microsomal fraction was used as a proton, potassium-adenosine triphosphatase standard product; from tissue; host or cells: swine stomach, gastric mucous membrane microsomal fraction
Procedure: Proton Potassium-Adenosine Triphosphatase (H^+,K^+-ATPase) Inhibitory Activity Test According to the method [Biochim. Biophys. Acta, 728, 31 (1983)] of Wallmark et al., a gastric mucous membrane microsomal fraction was prepared from the stomach of swine. First, the stomach was removed, washed with tap water, immersed in 3 mol/L brine, and the surface of the mucous membrane was wiped with a paper towel. The gastric mucous membrane was detached, chopped, and homogenized in a 0.25 mol/L saccharose solution (pH 6.8) containing 1 mmol/L EDTA and 10 mmol/L tris-hydrochloric acid using polytron (Kinematica). The obtained homogenate was centrifuged at 20,000×g for 30 min and the supernatant was centrifuged at 100,000×g for 90 min. The precipitate was suspended in 0.25 mol/L saccharose solution, superimposed on a 0.25 mol/L saccharose solution containing 7.5% Ficoll, and centrifuged at 100,000×g for 5 hr. The fraction containing the interface between the both layers was recovered, and centrifugally washed with 0.25 mol/L saccharose solution. The obtained microsomal fraction was used as a proton, potassium-adenosine triphosphatase standard product. […] The enzyme reaction was started by adding 5 μL of a 2 mmol/L-adenosine triphosphate tris salt solution (50 mmol/L HEPES-tris buffer (5 mmol/L magnesium chloride, pH 6.5)). The enzyme reaction was carried out at 37° C. for 20 min, and 15 μL of a malachite green solution (0.12% malachite green solution in sulfuric acid (2.5 mol/L), 7.5% ammonium molybdate and 11% Tween 20 were mixed at a ratio of 100:25:2) was added to quench the reaction. […] In addition, the amount of the inorganic phosphoric acid in the reaction solution free of potassium chloride was measured in the same manner, which was subtracted from the inorganic phosphoric acid amount in the presence of potassium chloride to determine the proton, potassium-adenosine triphosphatase activity.

HepG2 cells = assay: Intracellular ATP content in HepG2 cells (cytotoxicity); format: cell-based, human; details: HepG2, 30 μM, culture for one day, relative value to control, ATPLite, n≧3 average
Procedure: Human liver cancer-derived cell line HepG2 (ATCC No. HB-8065) was passaged using Dulbecco's Modified Eagle medium (DMEM; Invitrogen) containing 10% fetal bovine serum (FBS; TRACE SCIENTIFIC LTD.), 1 mmol/L sodium pyruvate (Invitrogen), 2 mmol/L L-glutamine (Invitrogen), 50 IU/mL penicillin (Invitrogen) and 50 μg/mL streptomycin (Invitrogen) at 5% CO2, 37° C. The test reagent was prepared with DMSO to 10 mM, and further diluted with DMEM medium containing 0.5% FBS, 1 mmol/L sodium pyruvate, 2 mmol/L L-glutamine, 50 IU/mL penicillin and 50 μg/mL streptomycin to a final concentration of DMSO of 0.1%. HepG2 (2×10^4 cells/well) was cultured on a 96 well white plate (Costar) with the test reagent at 5% CO2, 37° C. After culture for one day, the intracellular ATP content was measured using ATPLite™ (PerkinElmer Life Sciences). The results are shown in Table 24 (n≧3, average value±SD) as a relative value (%) to control (without addition of drug) at 30 μM.

T1 sequence (P19156 2-1034 limits assumed): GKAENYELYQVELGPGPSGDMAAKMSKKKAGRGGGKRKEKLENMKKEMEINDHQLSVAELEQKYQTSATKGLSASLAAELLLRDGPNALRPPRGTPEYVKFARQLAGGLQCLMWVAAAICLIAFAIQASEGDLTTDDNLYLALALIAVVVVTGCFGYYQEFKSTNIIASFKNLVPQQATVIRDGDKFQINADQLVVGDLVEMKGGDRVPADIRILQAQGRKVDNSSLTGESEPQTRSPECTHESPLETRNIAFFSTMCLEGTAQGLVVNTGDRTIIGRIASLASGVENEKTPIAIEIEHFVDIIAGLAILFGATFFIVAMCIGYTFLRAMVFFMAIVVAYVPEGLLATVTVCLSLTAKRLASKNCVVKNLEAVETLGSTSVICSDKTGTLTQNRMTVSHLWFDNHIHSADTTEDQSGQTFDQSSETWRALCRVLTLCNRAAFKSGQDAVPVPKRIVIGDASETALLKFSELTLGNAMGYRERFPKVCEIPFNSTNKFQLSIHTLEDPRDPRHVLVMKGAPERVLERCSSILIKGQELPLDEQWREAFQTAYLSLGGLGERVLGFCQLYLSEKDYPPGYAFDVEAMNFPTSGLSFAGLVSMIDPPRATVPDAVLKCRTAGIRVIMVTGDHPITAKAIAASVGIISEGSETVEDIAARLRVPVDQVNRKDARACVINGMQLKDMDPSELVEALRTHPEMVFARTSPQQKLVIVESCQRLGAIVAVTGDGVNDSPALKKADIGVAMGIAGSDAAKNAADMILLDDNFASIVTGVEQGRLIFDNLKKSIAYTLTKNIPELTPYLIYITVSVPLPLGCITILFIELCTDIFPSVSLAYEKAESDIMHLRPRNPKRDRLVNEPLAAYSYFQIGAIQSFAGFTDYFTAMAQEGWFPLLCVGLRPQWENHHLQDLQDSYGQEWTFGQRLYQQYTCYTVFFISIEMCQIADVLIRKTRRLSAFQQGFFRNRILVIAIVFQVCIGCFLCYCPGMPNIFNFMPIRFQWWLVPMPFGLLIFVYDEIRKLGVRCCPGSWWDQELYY
T1 sequence (P18434 whole entry partner): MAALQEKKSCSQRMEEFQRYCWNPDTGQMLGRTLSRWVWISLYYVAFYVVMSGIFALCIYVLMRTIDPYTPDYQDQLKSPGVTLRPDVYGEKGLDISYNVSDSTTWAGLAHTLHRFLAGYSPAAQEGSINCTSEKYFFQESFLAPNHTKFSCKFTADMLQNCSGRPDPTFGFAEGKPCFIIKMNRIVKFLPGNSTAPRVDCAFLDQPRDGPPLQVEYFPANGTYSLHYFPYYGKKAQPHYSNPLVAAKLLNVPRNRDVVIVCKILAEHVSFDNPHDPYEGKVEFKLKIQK

Row | IC50 [1] [nM] | SMILES | ATP content (%, 30 μM) (HepG2 cells) [%]
1 | 13 | CNCc1cc(-c2ccccc2)n(S(=O)(=O)c2ccc(OC)nc2)c1.Cl [Example 2, 1-{1-[(6-methoxypyridin-3-yl)sulfonyl]-5-phenyl-1H-pyrrol-3-yl}-N-methylmethanamine hydrochloride] | 45.2
2 | 65 | CNCc1cc(-c2ccccc2)n(S(=O)(=O)c2cnc(NC)nc2)c1.Cl [Example 5, N-methyl-1-{1-[2-(methylamino)pyrimidin-5-ylsulfonyl]-5-phenyl-1H-pyrrol-3-yl}methanamine hydrochloride] | 73.9
3 | 34 | CNCc1cc(-c2ccccc2)n(S(=O)(=O)c2cnc(C)nc2)c1.Cl.Cl [Example 7, N-methyl-1-[1-(2-methylpyrimidin-5-ylsulfonyl)-5-phenyl-1H-pyrrol-3-yl]-methanamine dihydrochloride] | 76.5
4 | 22 | CNCc1cc(-c2ccccc2F)n(S(=O)(=O)c2cccnc2)c1.O=C(O)/C=C/C(=O)O [Example 8, 1-[5-(2-fluorophenyl)-1-(pyridin-3-ylsulfonyl)-1H-pyrrol-3-yl]-N-methylmethanamine fumarate] | 87.9
5 | 41 | CNCc1cc(-c2cscc2C)n(S(=O)(=O)c2cccnc2)c1.Cl.Cl [Example 29, N-methyl-1-[5-(4-methyl-3-thienyl)-1-(pyridin-3-ylsulfonyl)-1H-pyrrol-3-yl]methanamine dihydrochloride] | 71.5
6 | 8.9 | CNCc1cc(-c2ccc(F)cc2F)n(S(=O)(=O)c2cccnc2)c1.Cl.Cl [Example 32, 1-[5-(2,4-difluorophenyl)-1-(pyridin-3-ylsulfonyl)-1H-pyrrol-3-yl]-N-methylmethanamine dihydrochloride] | 53.6
7 | 43 | CNCc1cn(S(=O)(=O)c2cccnc2)c(-c2ccccc2)c1F.Cl.Cl [Example 41, 1-[4-fluoro-5-phenyl-1-(pyridin-3-ylsulfonyl)-1H-pyrrol-3-yl]-N-methylmethanamine dihydrochloride] | 86.7
8 | 48 | CNCc1cc(-c2ccccc2F)n(S(=O)(=O)c2ccc(C)nc2)c1.Cl.Cl [Example 44, 1-{5-(2-fluorophenyl)-1-[(6-methylpyridin-3-yl)sulfonyl]-1H-pyrrol-3-yl}-N-methylmethanamine dihydrochloride] | 78.5
9 | 58 | CNCc1cc(-c2ccccc2C)n(S(=O)(=O)c2cccnc2)c1.O=C(O)/C=C/C(=O)O [Example 47, N-methyl-1-[5-(2-methylphenyl)-1-(pyridin-3-ylsulfonyl)-1H-pyrrol-3-yl]methanamine fumarate] | 81.8
10 | 210 | CNCc1cc(-c2cccnc2F)n(S(=O)(=O)c2cccnc2)c1.O=C(O)/C=C/C(=O)O [Example 74, 1-[5-(2-fluoropyridin-3-yl)-1-(pyridin-3-ylsulfonyl)-1H-pyrrol-3-yl]-N-methylmethanamine fumarate] | 95.2
